The values below are quoted from earlier work in patent US20210316003A1 (Immunomedics, Inc., priority 2020, published 2021).

Read-outs that look alike come from different tables or passages of the source.

Data set [1] deals with patients with recurrent SCLC. To be noted: nivolumab alone; cited from earlier work.
Data set [2] has as its system patients with advanced colorectal cancer. To be noted: cited from earlier work.
The next data set concerns patients. Conditions: single-agent therapy; cited from earlier work.
A further data set concerns SCLC patients. To be noted: 28 SCLC patients; cited from earlier work.
Data set [3] concerns patients with relapsed SCLC. Conditions: cited from earlier work.

For the compound “Nivolumab: inhibitor of the T-cell checkpoint receptor PD-1”, the Response rate in data set [1] is 10%.
Consider `CCc1c2c(nc3ccc(OC(=O)N4CCC(N5CCCCC5)CC4)cc13)-c1cc3c(c(=O)n1C2)COC(=O)[C@]3(O)CC` [irinotecan], for which the Response was 64% in data set [2] (TDP1 IVS12+79 G/G genotype) and 25% in data set [2] (TDP1 IVS12+79 T/T genotype). Moreover, the “Incidence of grade 3/4 neutropenia” value in data set [2] (TOP1 IVS4+61 A/A genotype (small sample size)) is on record as 50%; in data set [2] (TOP1 IVS4+61 G/G genotype), 8%. Also, the “Grade ≥3 events of early diarrhea” value in the data set on patients was 8%. Besides, in the data set on patients, the “Grade ≥3 events of late diarrhea” value is 31%.
For the compound `CC[C@@]1(O)C(=O)OCc2c1cc1n(c2=O)Cc2cc3c(CN(C)C)c(O)ccc3nc2-1` [topotecan], in the data set on SCLC patients, the Median survival was 5 months, the One-year survival is recorded as 3.5% and the PR was 11%. Further, in data set [3] (SCLC, meta-analysis), the “Grade ≥3 anemia” value is 24%, the “Grade ≥3 neutropenia” value is 69%, the “Grade ≥3 thrombocytopenia” value is recorded as 1% and the “Patients who died from this chemotherapy” value is “approximately 2%”. In addition, the Objective response rate in data set [3] (chemoresistant frontline SCLC patients) is listed as 5%. In addition, in data set [3] (chemosensitive SCLC patients), the Objective response rate is listed as 17%.
